# US20230149401A1 (priority 2020, published 2023)
# Columns and labels:
# SARS-CoV-2 [1] = type: cell-based
# furin-like convertases = type: cell-based; conditions: 1 μM; 293T17 producing cells and pseudovirions
# [2] = tested on: SARS-CoV-2 Spike ACE2-dependent cell-to-cell fusion; test: microbe, parasite or virus in culture; type: cell-based; conditions: Severe acute respiratory syndrome coronavirus 2; 300 nM
# [3] = tested on: HIV particles pseudotyped with SARS-CoV-2 S; type: cell-based
# TMPRSS2 = TMPRSS2 (Homo sapiens, UniProt O15393); type: cell-based; design: expressed in transfected cells; host or cells: HeLa; conditions: HeLa cells
# PACE4 (PCSK6) = biological target: T1, PACE4 (PCSK6) (Homo sapiens, UniProt P29122); test: Biochemical PC-inhibition assay, substrate FAM-[…]-TAMRA
# T1 construct: PACE4 (PCSK6; 150-693-Tev-Flag-6His); Tev site (C); Flag (C); 6His (C); made in house; host or cells: BacMam transduced CHO cells
# Description: (§1) Biochemical assay: The proprotein convertases furin (108-574-Tev-Flag-6His), PC5A (PCSK5; […]-Tev-Flag-6His), PACE4 (PCSK6; 150-693-Tev-Flag-6His), and PC7 (PCSK7; 142-634-Tev-Flag-6His) enzymes were purified from BacMam transduced CHO cells. […] 0.05 μl of each concentration was transferred to the corresponding well of an assay plate, and then 5 μl of enzyme (furin, PCSK5, PCSK6, and PCSK7) in assay buffer (100 mM HEPES pH 7.5, 1 mM CaCl2) and 0.005% Triton X-100) was added using a Multidrop Combi (Thermo) to the compound plates to give a final protein concentration of 0.02, 0.5, 2.5, and 1.0 nM respectively. The plates were mixed by inversion, and following a 30 min preincubation of enzyme with compound at room temperature (˜22° C.), the substrate FAM-[…] -TAMRA (AnaSpec #808143, 5 μl of a 1, 0.25, 0.20, and 0.5 μM solution in assay buffer for furin, PCSK5, PCSK6, and PCSK7 respectively) was added using a Multidrop Combi to the entire assay plate. The plates were centrifuged at 500×g for 1 minute and incubated at room temperature for two hours. Enzyme inhibition was then quantified using an Envision instrument (PerkinElmer). Data were normalized to maximal inhibition determined by 1 μM Decanoyl-Arg-Val-Lys-Arg-Chloromethylketone (Calbiochem #344930). Golgi imaging assay: This assay uses an image-based platform to evaluate the intracellular activity of furin inhibitors. Reactions were performed in black 384-well, tissue culture-treated, clear bottom plates (Greiner). Compounds under analysis were dissolved in DMSO (1.0 mM) and serially diluted 1 to 3 with DMSO through eleven dilutions. This creates a final compound concentration range from 0.00017 to 10 μM, and 0.1 μL of each concentration was transferred to the corresponding well of the assay plate.
# PC5A (PCSK5) = biological target: T2, PC5A (PCSK5) (Homo sapiens, UniProt Q92824); test: as above
# T2 construct: fused on or other part: C-terminal Tev site, Flag tag and 6His tag
# Description: as §1
# PC7 (PCSK7) = biological target: T3, PC7 (PCSK7) (Homo sapiens, UniProt Q16549); test: as above
# T3 construct: PC7 (PCSK7; 142-634-Tev-Flag-6His); Tev site (C); Flag (C); 6His (C); made in house; host or cells: BacMam transduced CHO cells
# Description: as §1
# SARS-CoV-2 [4] = test: microbe, parasite or virus in culture; type: cell-based
# [5] = tested on: endogenous furin-like enzymes; type: cell-based; conditions: HeLa-ACE2 cells
# T2 sequence (Q92824 115-601): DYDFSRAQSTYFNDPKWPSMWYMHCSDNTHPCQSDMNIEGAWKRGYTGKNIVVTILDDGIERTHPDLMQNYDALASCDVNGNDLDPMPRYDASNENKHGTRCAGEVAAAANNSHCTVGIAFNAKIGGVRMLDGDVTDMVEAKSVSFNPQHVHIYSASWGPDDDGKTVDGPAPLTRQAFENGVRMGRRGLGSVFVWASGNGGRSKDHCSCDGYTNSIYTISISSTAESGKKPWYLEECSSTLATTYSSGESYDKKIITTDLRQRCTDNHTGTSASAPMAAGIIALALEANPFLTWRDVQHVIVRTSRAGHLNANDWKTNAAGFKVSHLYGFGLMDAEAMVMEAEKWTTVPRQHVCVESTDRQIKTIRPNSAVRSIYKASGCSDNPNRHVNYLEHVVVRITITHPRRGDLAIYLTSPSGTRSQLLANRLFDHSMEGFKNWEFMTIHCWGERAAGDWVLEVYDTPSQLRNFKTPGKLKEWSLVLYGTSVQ
# T1 sequence (P29122 150-693): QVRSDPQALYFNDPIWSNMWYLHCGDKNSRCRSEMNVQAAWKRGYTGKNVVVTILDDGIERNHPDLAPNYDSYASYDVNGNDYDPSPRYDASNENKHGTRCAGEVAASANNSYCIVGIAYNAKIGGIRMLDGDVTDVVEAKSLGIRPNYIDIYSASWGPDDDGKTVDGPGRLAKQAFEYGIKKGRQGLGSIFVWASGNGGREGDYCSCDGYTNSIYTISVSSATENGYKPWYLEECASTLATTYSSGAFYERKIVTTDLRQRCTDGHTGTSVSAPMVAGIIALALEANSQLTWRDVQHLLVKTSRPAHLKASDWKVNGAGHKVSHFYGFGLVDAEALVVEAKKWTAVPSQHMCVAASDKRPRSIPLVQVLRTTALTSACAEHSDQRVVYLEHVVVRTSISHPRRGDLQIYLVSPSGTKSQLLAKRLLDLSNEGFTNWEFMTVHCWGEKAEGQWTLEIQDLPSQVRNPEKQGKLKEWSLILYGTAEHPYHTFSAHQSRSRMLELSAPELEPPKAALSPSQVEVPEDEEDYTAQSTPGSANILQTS
# Sequence of TMPRSS2 (O15393 whole entry): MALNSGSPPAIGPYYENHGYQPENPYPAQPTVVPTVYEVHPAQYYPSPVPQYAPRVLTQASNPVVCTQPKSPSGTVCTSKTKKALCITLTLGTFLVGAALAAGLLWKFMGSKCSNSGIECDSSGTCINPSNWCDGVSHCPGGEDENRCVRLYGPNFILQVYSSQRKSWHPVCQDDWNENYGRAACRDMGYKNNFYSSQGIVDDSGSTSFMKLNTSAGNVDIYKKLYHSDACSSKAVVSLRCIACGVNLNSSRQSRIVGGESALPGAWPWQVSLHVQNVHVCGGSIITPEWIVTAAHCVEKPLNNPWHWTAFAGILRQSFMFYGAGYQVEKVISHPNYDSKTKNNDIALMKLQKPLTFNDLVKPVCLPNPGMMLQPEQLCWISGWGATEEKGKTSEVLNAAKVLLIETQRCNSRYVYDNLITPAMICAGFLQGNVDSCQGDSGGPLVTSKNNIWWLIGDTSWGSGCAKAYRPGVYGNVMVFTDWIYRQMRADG
# T3 sequence (Q16549 142-634): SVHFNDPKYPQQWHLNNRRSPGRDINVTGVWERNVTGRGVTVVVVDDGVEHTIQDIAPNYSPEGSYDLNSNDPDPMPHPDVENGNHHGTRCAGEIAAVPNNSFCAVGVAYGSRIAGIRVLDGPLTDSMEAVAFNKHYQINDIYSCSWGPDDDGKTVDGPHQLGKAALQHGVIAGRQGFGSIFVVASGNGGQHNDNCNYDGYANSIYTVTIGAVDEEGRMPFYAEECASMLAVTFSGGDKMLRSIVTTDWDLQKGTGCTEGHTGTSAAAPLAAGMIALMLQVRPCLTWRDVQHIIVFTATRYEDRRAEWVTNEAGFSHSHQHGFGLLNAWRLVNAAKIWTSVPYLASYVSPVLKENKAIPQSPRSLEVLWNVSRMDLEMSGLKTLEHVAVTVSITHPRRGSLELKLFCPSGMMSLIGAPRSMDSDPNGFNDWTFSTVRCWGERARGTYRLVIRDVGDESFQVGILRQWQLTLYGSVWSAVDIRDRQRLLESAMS
smiles,measurement,setting,value
"CN1CCN(c2ncc(Oc3cc(CN4CCC(CC(=O)O)CC4)cc(-c4cc(Cl)cc(Cl)c4)n3)cn2)CC1 [Compound 93, 2-(1-((2-(3,5-dichloro-phenyl)-6-((2-(4-methyl-piperazin-1-yl)pyrimidin-5-yl)oxy)pyridin-4-yl)methyl)piperidin-4-yl)acetic acid]",Virus production in infected Vero E6 cells,SARS-CoV-2 [1],modestly reduce virus production
same,Decrease in virus production,SARS-CoV-2 [1]; 1 μM,~5.7 fold
same,Processing of WT-S,furin-like convertases,clearly impaired
same,inhibition at 0.3 µM,[2],> 60%
same,Viral entry in Calu-3 of pseudovirions packaged in presence of inhibitor,[3],prevents viral entry
same,Generation of S2a and S2b by TMPRSS2,TMPRSS2,none of the compounds affected
same,IC50,PACE4 (PCSK6),~7 nM
same,IC50,PC5A (PCSK5),~7 nM
same,IC50,PC7 (PCSK7),~7 nM
same,Concentration from which inhibitory effect could be observed,SARS-CoV-2 [4],0.25 µM
same,Levels of viral spike and nucleocapsid proteins and progeny virus levels,SARS-CoV-2 [4],similarly decreased
same,"Viral titers at 12, 24 and 48h post-infection",SARS-CoV-2 [4],significantly decreased
same,Reduction of titer of progeny viruses,SARS-CoV-2 [4]; 1 μM,more than 30 fold
same,IC50,"SARS-CoV-2 [4]; Severe acute respiratory syndrome coronavirus 2, Calu-3, 24 h, read-out: IC50 (virus titer)",200 nM
same,S1/S2 and S2′ processing by endogenous furin-like enzymes,[5],blocked
